According to paper PMC6270905, “Anti-Obesity Effects of Hispidin and Alpinia zerumbet Bioactives in 3T3-L1 Adipocytes” (Molecules, 2014):
Like-named read-outs stand apart in the source and are kept apart here.

Molecular target: T1, pancreatic lipase (Sus scrofa, UniProt P00591)
T1 construct: gene PNLIP
T1 sequence (P00591 1-450): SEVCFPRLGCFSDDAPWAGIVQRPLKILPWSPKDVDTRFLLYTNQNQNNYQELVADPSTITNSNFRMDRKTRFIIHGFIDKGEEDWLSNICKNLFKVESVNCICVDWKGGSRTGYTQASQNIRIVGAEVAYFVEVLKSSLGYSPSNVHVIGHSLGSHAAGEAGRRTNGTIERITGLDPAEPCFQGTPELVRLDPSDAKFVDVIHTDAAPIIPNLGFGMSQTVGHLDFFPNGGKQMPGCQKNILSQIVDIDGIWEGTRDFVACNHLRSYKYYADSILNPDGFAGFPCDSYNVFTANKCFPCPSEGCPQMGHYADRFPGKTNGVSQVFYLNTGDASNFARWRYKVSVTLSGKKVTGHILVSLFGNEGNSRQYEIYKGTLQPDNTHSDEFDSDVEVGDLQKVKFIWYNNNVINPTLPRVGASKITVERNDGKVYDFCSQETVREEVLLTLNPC
Assay: p-nitrophenyl butyrate hydrolysis by porcine pancreatic lipase (type II), absorbance at […] nm
Assay type: biochemical

IC50 (read-out: IC50 (converted))	Compound	IC50
	COc1cc(CCc2ccccc2)oc(=O)c1 [DDK, dihydro-5,6-dehydrokawain]	36.5 µM
326 µM	COc1cc(/C=C/c2ccccc2)oc(=O)c1 [DK, 5,6-dehydrokawain]	
76.4 µM	O=c1cc(O)cc(/C=C/c2ccc(O)c(O)c2)o1 [hispidin, 6-(3,4-dihydroxylstyryl)-4-hydroxy-2-pyrone]	
